Results taken from patent publication US9834526B2 (MERCK SHARP & DOHME CORP., priority 2013, dated 2017).

What follows are compounds tested against T1, wildtype HIV-1 protease (Human immunodeficiency virus type 1 group M subtype B, UniProt P04585) (assay: Inhibition of microbial expressed HIV protease (Pepcleav)). Details: wild type HIV-1 protease expressed in E. coli, 20 pM enzyme, 400 micromolar peptide substrate, pH 5.5, LC-MS readout; mean of at least two independent experiments.
T1 construct: preincubated with the HIV-1 protease (wild type) enzyme in assay buffer; made in house; host or cells: Escherichia coli
Type: biochemical
Protocol: Assay for Inhibition of Microbial Expressed HIV Protease (“Pepcleav”)
Studies of the inhibition of the wildtype HIV-1 protease (which was expressed in Escherichia coli) were carried out with a peptide substrate [Val-Ser-Gln-Asn-(βnaphthyl)Ala-Pro-Ile-Val (SEQ ID NO:1)]. The inhibitor was first preincubated with the HIV-1 protease (wild type) enzyme in assay buffer (50 mM sodium acetate, pH 5.5, 100 mM NaCl, and 0.1% BSA) for 30 minutes at room temperature. Substrate was added to 400 micromolar in a total volume of 20 microliters containing 20 picomolar HIV-1 protease (final) and the reaction was incubated for 1 hour at 30° C. The reaction was quenched with the addition of formic acid and indinavir to 0.012% and 150 nM final concentrations, respectively. The product formation was determined after separation of product and substrate on a Zorbax Eclipse XDB-C18 column connected to an API 4000 mass spectrometer (Applied Biosystems) with multiple reaction monitoring (transitions were 644.5/428.9 and 615.4/422.2 (M1/M3) for product and indinavir respectively). The extent of inhibition of the reaction was determined from the peak area of the products. Analysis of the products, independently synthesized, provided quantitation standards and confirmation of the product composition.
In the case of `COC(=O)N[C@H](C(=O)Nc1ccccc1CC[C@@H]1CN[C@H](C)[C@@H](CSc2nc3ncccc3[nH]2)O1)C(c1ccccc1)c1ccccc1` [Example 22, methyl N-[(1S)-1-benzhydryl-2-[[2-[2-[(2R,5R,6S)-6-(1H-imidazo[4,5-b]pyridin-2-ylsulfanylmethyl)-5-methyl-morpholin-2-yl]ethyl]phenyl]amino]-2-oxo-ethyl]carbamate], the IC50 is reported as 44.4 nM.
For `COC(=O)N[C@H](C(=O)Nc1ccccc1CC[C@@H]1CN[C@H](C)[C@@H](CSc2ncnc3c2ncn3[C@@H]2O[C@H](CO)[C@@H](O)[C@H]2O)O1)C(c1ccccc1)c1ccccc1` [Example 23, methyl N-[(1S)-1-benzhydryl-2-[[2-[2-[(2R,5R,6S)-6-[[9-[(2R,3R,4S,5R)-3,4-dihydroxy-5-(hydroxymethyl)tetrahydrofuran-2-yl]purin-6-yl]sulfanylmethyl]-5-methyl-morpholin-2-yl]ethyl]phenyl]amino]-2-oxo-ethyl]carbamate], the IC50 was 51.9 nM.
`COC(=O)N[C@H](C(=O)Nc1ccccc1CC[C@@H]1CN[C@H](C)[C@@H](CSc2nc[nH]n2)O1)C(c1ccccc1)c1ccccc1` [Example 24, methyl N-[(1S)-1-benzhydryl-2-[[2-[2-[(2R,5R,6S)-5-methyl-6-(1H-1,2,4-triazol-3-ylsulfanylmethyl)morpholin-2-yl]ethyl]phenyl]amino]-2-oxo-ethyl]carbamate] showed an IC50 of 58.3 nM.
Compound `COC(=O)N[C@H](C(=O)Nc1ccccc1CC[C@@H]1CN[C@H](C)[C@@H](CSc2nc(N)c3cn[nH]c3n2)O1)C(c1ccccc1)c1ccccc1` [Example 25, methyl N-[(1S)-1-[[2-[2-[(2R,5R,6S)-6-[(4-amino-1H-pyrazolo[3,4-d]pyrimidin-6-yl)sulfanylmethyl]-5-methyl-morpholin-2-yl]ethyl]phenyl]carbamoyl]-2,2-diphenyl-ethyl]carbamate] has an IC50 of 100 nM.
Work on `COC(=O)N[C@H](C(=O)Nc1ccccc1CC[C@@H]1CN[C@H](C)[C@@H](CSc2nnc(CN3CCCC3)o2)O1)C(c1ccccc1)c1ccccc1` [Example 26, methyl N-[(1S)-1-benzhydryl-2-[[2-[2-[(2R,5R,6S)-5-methyl-6-[[5-(pyrrolidin-1-ylmethyl)-1,3,4-oxadiazol-2-yl]sulfanylmethyl]morpholin-2-yl]ethyl]phenyl]amino]-2-oxo-ethyl]carbamate] yielded an IC50 of 124 nM.
In the case of `COC(=O)N[C@H](C(=O)Nc1ccccc1CC[C@@H]1CN[C@H](C)[C@@H](CSc2nc(C)cc(C)c2C#N)O1)C(c1ccccc1)c1ccccc1` [Example 27, methyl N-[(1S)-1-benzhydryl-2-[[2-[2-[(2R,5R,6S)-6-[(3-cyano-4,6-dimethyl-2-pyridyl)sulfanylmethyl]-5-methyl-morpholin-2-yl]ethyl]phenyl]amino]-2-oxo-ethyl]carbamate], the IC50 is reported as 124 nM.
Work on `COC(=O)N[C@H](C(=O)Nc1ccccc1CC[C@@H]1CN[C@H](C)[C@@H](CSc2nnnn2CCN(C)C)O1)C(c1ccccc1)c1ccccc1` [Example 28, methyl N-[(1S)-1-benzhydryl-2-[[2-[2-[(2R,5R,6S)-6-[[1-(2-dimethylaminoethyl)tetrazol-5-yl]sulfanylmethyl]-5-methyl-morpholin-2-yl]ethyl]phenyl]amino]-2-oxo-ethyl]carbamate] yielded an IC50 of 214 nM.
Work on `COC(=O)N[C@H](C(=O)Nc1ccccc1CC[C@@H]1CN[C@H](C)[C@@H](CSc2ncc[nH]2)O1)C(c1ccccc1)c1ccccc1` [Example 29, methyl N-[(1S)-1-benzhydryl-2-[[2-[2-[(2R,5R,6S)-6-(1H-imidazol-2-ylsulfanylmethyl)-5-methyl-morpholin-2-yl]ethyl]phenyl]amino]-2-oxo-ethyl]carbamate] yielded an IC50 of 235 nM.
With `COC(=O)N[C@H](C(=O)Nc1ccccc1CC[C@@H]1CN[C@H](COC(C)=O)[C@@H](CSc2nnc(-c3ccncc3)o2)O1)C(c1ccccc1)c1ccccc1` [Example 30, [(2S,3R,6R)-6-[2-(2-{[N-(methoxycarbonyl)-β-phenyl-L-phenylalanyl]amino}phenyl)ethyl]-2-({[5-(pyridin-4-yl)-1,3,4-oxadiazol-2-yl]sulfanyl}methyl)morpholin-3-yl]methyl acetate] the IC50 was 0.0334 nM.
`COC(=O)N[C@H](C(=O)Nc1ccccc1CC[C@@H]1CN[C@H](CO)[C@@H](CSc2nnc(-c3ccncc3)o2)O1)C(c1ccccc1)c1ccccc1` [Example 31, N-(2-{2-[(2R,5R,6S)-5-(hydroxymethyl)-6-({[5-(pyridin-4-yl)-1,3,4-oxadiazol-2-yl]sulfanyl}methyl)morpholin-2-yl]ethyl}phenyl)-Nα-(methoxycarbonyl)-β-phenyl-L-phenylalaninamide] showed an IC50 of 0.171 nM.
`COC(=O)N[C@H](C(=O)Nc1ccccc1CC[C@@H]1CN[C@H](c2ncc[nH]2)[C@@H](CSc2nnc(-c3ccncc3)o2)O1)C(c1ccccc1)c1ccccc1` [Example 32, N-(2-{2-[(2R,5R,6S)-5-(1H-imidazol-2-yl)-6-({[5-(pyridin-4-yl)-1,3,4-oxadiazol-2-yl]sulfanyl}methyl)morpholin-2-yl]ethyl}phenyl)-Nα-(methoxycarbonyl)-β-phenyl-L-phenylalaninamide] showed an IC50 of 0.65 nM.
For `COC(=O)N[C@H](C(=O)Nc1ccccc1CC[C@@H]1CN[C@H](COCc2ccccc2)[C@@H](CSc2nnc(-c3ccncc3)o2)O1)C(c1ccccc1)c1ccccc1` [Example 33], the IC50 was 0.472 nM.
`COC(=O)N[C@H](C(=O)Nc1ccccc1CC[C@@H]1CN[C@H](COC(=O)NCc2ccc(F)cc2)[C@@H](CSc2nnc(-c3ccncc3)o2)O1)C(c1ccccc1)c1ccccc1` [Example 35, N-(2-{2-[(2R,5R,6S)-5-({[(4-fluorobenzyl)carbamoyl]oxy}methyl)-6-({[5-(pyridin-4-yl)-1,3,4-oxadiazol-2-yl]sulfanyl}methyl)morpholin-2-yl]ethyl}phenyl)-Nα-(methoxycarbonyl)-β-phenyl-L-phenylalaninamide] showed an IC50 of 0.0304 nM.
`C[C@@H]1O[C@H](CCc2c(F)cccc2NC(=O)[C@@H](N)C(c2ccc(F)cc2)c2ccc(F)cc2)CN[C@@H]1COC(N)=O` [Example 36, N-[2-(2-{(2R,5R,6S)-5-[(carbamoyloxy)methyl]-6-methylmorpholin-2-yl}ethyl)-3-fluorophenyl]-4-fluoro-β-(4-fluorophenyl)-L-phenylalaninamide] gave an IC50 of 39 nM.
Work on `C[C@@H]1O[C@H](CCc2c(F)cccc2NC(=O)[C@@H](N)C(c2ccc(F)cc2)c2ccc(F)cc2)CN[C@@H]1COC(=O)N[C@@H](C)C(F)(F)F` [Example 37, 4-fluoro-N-[3-fluoro-2-(2-{(2R,5R,6S)-6-methyl-5-[({[(1S)-2,2,2-trifluoro-1-methylethyl]carbamoyl}oxy)methyl]morpholin-2-yl}ethyl)phenyl]-β-(4-fluorophenyl)-L-phenylalaninamide] yielded an IC50 of 3.1 nM.
Compound `CC[C@@H](NC(=O)OC[C@H]1NC[C@@H](CCc2c(F)cccc2NC(=O)[C@@H](N)C(c2ccc(F)cc2)c2ccc(F)cc2)O[C@H]1C)c1ccc(F)cc1` [Example 38, 4-fluoro-N-[3-fluoro-2-(2-{(2R,5R,6S)-5-[({[(1R)-1-(4-fluorophenyl)propyl]carbamoyl}oxy)methyl]-6-methylmorpholin-2-yl}ethyl)phenyl]-β-(4-fluorophenyl)-L-phenylalaninamide] has an IC50 of 4.4 nM.
With `COC(=O)N[C@H](C(=O)Nc1ccccc1CC[C@@H]1CN[C@H](C)[C@@H](CSc2cc(N3CCN(C)CC3)ncn2)O1)C(c1ccccc1)c1ccccc1` [Example 39] the IC50 was 420 nM.
For `COC(=O)N[C@H](C(=O)Nc1ccccc1CC[C@@H]1CN[C@H](C)[C@@H](CS(=O)(=O)c2ccc(Cl)cc2)O1)C(c1ccccc1)c1ccccc1` [Example 40, N-(2-{2-[(2R,5R,6S)-6-{[(4-chlorophenyl)sulfonyl]methyl}-5-methylmorpholin-2-yl]ethyl}phenyl)-Nα-(methoxycarbonyl)-β-phenyl-L-phenylalaninamide], the IC50 was 750 nM.
`COC(=O)N[C@H](C(=O)Nc1ccccc1CC[C@@H]1CN[C@H](C)[C@@H](C[S@@+]([O-])c2ccc(Cl)cc2)O1)C(c1ccccc1)c1ccccc1` [Example 41, N-(2-{2-[(2R,5R,6S)-6-{[(R)-(4-chlorophenyl)sulfinyl]methyl}-5-methylmorpholin-2-yl]ethyl}phenyl)-Nα-(methoxycarbonyl)-β-phenyl-L-phenylalaninamide] was tested, and the IC50 was 890 nM.
`COC(=O)N[C@H](C(=O)Nc1ccccc1CC[C@@H]1CN[C@H](COCc2ccccc2)[C@@H](CO)O1)C(c1ccccc1)c1ccccc1` [Example 42, N-(2-{2-[(2R,5R,6S)-5-[(benzyloxy)methyl]-6-(hydroxymethyl)morpholin-2-yl]ethyl}phenyl)-Nα-(methoxycarbonyl)-β-phenyl-L-phenylalaninamide] was tested, and the IC50 was 80 nM.
Compound `COC(=O)N[C@H](C(=O)Nc1ccccc1CC[C@@H]1CN[C@H](COC(=O)NCC(F)(F)F)[C@@H](CSc2nnc(-c3ccncc3)o2)O1)C(c1ccccc1)c1ccccc1` [Example 43] has an IC50 of 0.01 nM.
With `C[C@H]1O[C@H](CCc2c(F)cncc2NC(=O)[C@@H](N)C(c2ccc(F)cc2)c2ccc(F)cc2)CN[C@@H]1COC(=O)NCC(F)(F)F` [Example 45, 4-fluoro-N-(5-fluoro-4-{2-[(2R,5R,6R)-6-methyl-5-({[(2,2,2-trifluoroethyl)carbamoyl]oxy}methyl)morpholin-2-yl]ethyl}pyridin-3-yl)-β-(4-fluorophenyl)-L-phenylalaninamide] the IC50 was 24 nM.
